Reference: article PMC2587100 (Biochemistry, 2008)

What was measured:
Assay type in all cases: biochemical
[1] = target: T1, alkaline phosphatase (AP) (Escherichia coli, UniProt P00634, R188K); experiment: […]-based hydrolysis assay, kcat/KM
[2] = target: T2, alkaline phosphatase (AP) (Escherichia coli, UniProt P00634, R188S); experiment: […]-based hydrolysis assay, kcat/KM
[3] = target: T1, alkaline phosphatase (AP); experiment: steady-state hydrolysis by purified enzyme, kcat/KM
[4] = target: alkaline phosphatase (AP) (Escherichia coli, UniProt P00634); experiment: as above
Sequence of alkaline phosphatase (AP) (Escherichia coli, UniProt P00634) (P00634 22-471): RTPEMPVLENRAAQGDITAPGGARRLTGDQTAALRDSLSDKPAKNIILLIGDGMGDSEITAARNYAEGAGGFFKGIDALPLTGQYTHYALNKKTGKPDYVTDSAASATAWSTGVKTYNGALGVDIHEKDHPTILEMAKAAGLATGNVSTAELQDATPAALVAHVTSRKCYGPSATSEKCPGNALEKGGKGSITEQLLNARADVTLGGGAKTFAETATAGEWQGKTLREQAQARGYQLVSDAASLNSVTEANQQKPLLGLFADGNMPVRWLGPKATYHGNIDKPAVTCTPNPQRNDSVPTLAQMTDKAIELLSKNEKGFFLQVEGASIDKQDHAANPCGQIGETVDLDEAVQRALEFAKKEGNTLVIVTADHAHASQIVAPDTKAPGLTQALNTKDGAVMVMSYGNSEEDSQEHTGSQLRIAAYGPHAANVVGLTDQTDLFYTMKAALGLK

[5] = target: T2, alkaline phosphatase (AP); experiment: as above
[6] = target: T1, alkaline phosphatase (AP); experiment: continuous absorbance assay of hydrolysis, kcat/KM
[7] = target: T2, alkaline phosphatase (AP); experiment: continuous absorbance assay of hydrolysis, kcat/KM

T1 sequence (P00634 23-471 R188K): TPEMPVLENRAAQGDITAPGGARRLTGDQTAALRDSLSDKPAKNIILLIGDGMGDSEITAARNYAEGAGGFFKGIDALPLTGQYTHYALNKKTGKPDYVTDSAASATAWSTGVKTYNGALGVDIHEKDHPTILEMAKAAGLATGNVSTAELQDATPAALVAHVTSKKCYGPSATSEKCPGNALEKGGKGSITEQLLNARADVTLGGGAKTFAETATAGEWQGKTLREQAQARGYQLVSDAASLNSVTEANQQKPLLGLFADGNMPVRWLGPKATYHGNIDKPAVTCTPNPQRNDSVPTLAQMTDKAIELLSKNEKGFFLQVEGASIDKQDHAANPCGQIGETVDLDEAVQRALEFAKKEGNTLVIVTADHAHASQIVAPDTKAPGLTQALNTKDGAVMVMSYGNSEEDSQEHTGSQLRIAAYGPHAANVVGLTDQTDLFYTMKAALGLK
T2 sequence (P00634 23-471 R188S): as the sequence (P00634 23-471 R188K) above, with K166S counted along it

## CCOP(=O)(O)O [EtOP, ethyl phosphate]
[1]
  EtOP / kcat/KM: 20 M⁻¹ s⁻¹
[2]
  EtOP / kcat/KM: 24 M⁻¹ s⁻¹

## O=[N+]([O-])c1ccc(OP(O)(O)=S)cc1 [pNPPS, p-Nitrophenyl O-phosphorothioate]
[3]
  kcat/KM (M^-1s^-1) / pNPPS: 1.6 × 10^4 M^−1s^−1
[4]
  kcat/KM (M^-1s^-1) / pNPPS: 5.5 × 10^3 M^−1s^−1
[5]
  kcat/KM (M^-1s^-1) / pNPPS: 2.6 × 10^3 M^−1s^−1

## O=[N+]([O-])c1ccc(OP(=O)(O)O)cc1 [pNPP, p-Nitrophenyl phosphate]
[6]
  pNPP / kcat/KM (M^-1s^-1): 1.9 × 10^5 M^−1s^−1
[7]
  pNPP / kcat/KM (M^-1s^-1): 1.0 × 10^5 M^−1s^−1
